In BindingDB's records for doi:10.1021/jm00101a007 (Centre De Recherche De Vitry-Alfortville, 1992):

Tests used:
[1] = biological target: Leukotriene B4 receptor (Cavia porcellus); test: Inhibition of [3H]LTB4 binding to Leukotriene B4 receptor in the guinea pig spleen membranes
[2] = biological target: Leukotriene B4 receptor (Cavia porcellus); test: as above; remark: listed apart in the source

| Compound | IC50 [1] [nM] | IC50 [2] [nM] |
| --- | --- | --- |
| O=C(O)CCCCCCOc1cc(-c2ccccc2)c2ccccc2n1 | 1800 |  |
| CC(CCCCOc1cc(-c2ccccc2)c2ccccc2n1)C(=O)O (stereo unspecified) | 550 |  |
| CC(C)(CCCCOc1cc(-c2ccc(N)cc2)c2ccccc2n1)C(=O)O | 40 |  |
| O=C(O)CCCCCOc1cc(-c2ccc(Cl)cc2)c2ccccc2n1 | 30 |  |
| CC(C)(CCCCOc1cc(-c2ccccc2)c2cc(Cl)ccc2n1)C(=O)O | 2500 |  |
| CC(C)(CCCCOc1cc(-c2ccc(Cl)cc2)c2ccccc2n1)C(=O)O | 15 |  |
| CC(C)(CCCCOc1cc(-c2ccc(Cl)cc2)c2ccccc2n1)c1nnn[nH]1 | 30 |  |
| CC(C)(CCCCOc1cc(-c2ccccc2)c2ccccc2n1)c1nnn[nH]1 | 400 |  |
| CC(C)(CCCCOc1cc(-c2ccccc2)c2ccccc2n1)C(=O)O |  | 183 |
| CC(C)(CCCCOc1cc(-c2cccc(Cl)c2)c2ccccc2n1)C(=O)O | 1100 |  |
| CC(C)(CCCCOc1cc(-c2ccc(C(F)(F)F)cc2)c2ccccc2n1)C(=O)O | 300 |  |
| Cc1ccc(-c2cc(OCCCCC(C)(C)C(=O)O)nc3ccccc23)cc1 | 30 |  |
| COc1cccc(-c2cc(OCCCCC(C)(C)C(=O)O)nc3ccccc23)c1 | 300 |  |
| CC(C)(CCCCOc1cc(-c2ccc([N+](=O)[O-])cc2)c2ccccc2n1)C(=O)O | 150 |  |
| c1ccc(-c2cc(OCCCCCc3nnn[nH]3)nc3ccccc23)cc1 | 500 |  |
| O=C(O)CCCCCOc1cc(-c2ccccc2)c2ccccc2n1 | 700 |  |
